The numbers were not newly measured in US20050101563A1, “Method and compositions for the treatment and prevention of pain and inflammation” (Pharmacia Corporation, priority 2001, published 2005), which cites them from elsewhere.

For series [1], the system named is patients with knee osteoarthritis. As to conditions: 1500 mg/day, 3 years.
In another series the test system is Cox-2. As to conditions: enzyme inhibitory compounds of Ligustrum lucidum extracts.
In a further series the test system is rats. The following applies: orally administered; sponge implants in rats.
For series [2] the following is noted: orally administered; rats.

On to `CC(=O)N[C@H]1C(O)O[C@H](CO)[C@@H](O)[C@@H]1O` (stereo partly drawn) [N-acetylglucosamine], for which the “IL-1-beta-mediated activation of chondrocytes” value in the series with human chondrocytes is given as “prevent IL-1-beta-mediated activation of human chondrocytes”.

Regarding `N[C@H]1C(O)O[C@H](CO)[C@@H](O)[C@@H]1O.O=S(=O)(O)O` (stereo partly drawn) [glucosamine sulfate], the joint-space loss entry in series [1] is “no significant joint-space loss”.

On to `CC1(C)CC[C@]2(C(=O)O)CC[C@]3(C)C(=CC[C@@H]4[C@@]5(C)CC[C@H](O)C(C)(C)[C@@H]5CC[C@]43C)[C@@H]2C1` [oleanic acid], for which, in the series with Cox-2, the “selectivity for the inhibition of Cox-2 versus Cox-1” value is listed as “not substantially more selective for the inhibition of Cox-2 than for Cox-1”. Consider `C[C@H]1[C@H](C)CC[C@]2(C(=O)O)CC[C@]3(C)C(=CC[C@@H]4[C@@]5(C)CC[C@H](O)C(C)(C)[C@@H]5CC[C@]43C)[C@H]12` [ursolic acid], for which, in the series on Cox-2, the “selectivity for the inhibition of Cox-2 versus Cox-1” value is recorded as “not substantially more selective for the inhibition of Cox-2 than for Cox-1”. As to chondroitin sulfate, the granuloma formation result in the series on rats is “significantly decrease granuloma formation”. In addition, the tissue tropism entry in series [2] is “tropism for cartilagineous tissues”.
